Assay results as given in US8648061B2, “Use of polyunsaturated fatty acids for the primary prevention of major cardiovascular events” (Pro Aparts Investimentos E. Consultoria LDA., priority 2001, dated 2014).

Tested on: non-anesthetized guinea pigs
Test: preliminary tests: minimum lethal dose of ouabain
Type: in vivo, guinea pig
Conditions: intravenously administered over 3 minutes
Procedure: The experimental sudden death model was obtained by cardiac arrest induced by intravenous (i.v.) administration of a cardiotoxic agent (ouabain). In preliminary tests, various doses of ouabain were administered to non-anesthetized guinea pigs of both sexes of weight 300-380 g, in order to determine the minimum lethal dose for 100% of the animals within 15 minutes from i.v. injection (240 mg/kg, intravenously administered over 3 minutes).

Compound: C[C@@H]1O[C@@H](O[C@H]2C[C@@H](O)[C@]3(CO)[C@H]4[C@H](O)C[C@]5(C)[C@@H](C6=CC(=O)OC6)CC[C@]5(O)[C@@H]4CC[C@]3(O)C2)[C@H](O)[C@H](O)[C@H]1O [ouabain]
- minimum lethal dose for 100% of the animals within 15 minutes from i.v. injection: 240 mg/kg
